# Test results taken from patent US20120165403A1, “METHODS OF INHIBITING THE ACTIVITY OF HSP90 AND/OR ARYL HYDROCARBON RECEPTOR” (UNIVERSITY OF ROCHESTER, priority 2004, published 2012).
# Key:
# purified human hsp90 = molecular target: T1, purified human hsp90 (Homo sapiens, UniProt P07900); assay: Affinity chromatography on EGCG-conjugated Sepharose, purified hsp90; type: binding; details: purified hsp90 alone
# T1 construct: purchased Stressgen
# Method: EGCG was conjugated to cyanogen bromide (CNBr)-activated Sepharose (Sigma). EGCG (2.5 mg) was dissolved in 5004 coupling buffer (0.1M NaHCO3, 0.5M NaCl, pH 6.0). CNBr-activated Sepharose was swelled and washed in 1 mM HCl on a sintered glass filter followed by a wash with coupling buffer. CNBr-activated Sepharose beads were added to the EGCG in coupling buffer at a final concentration of 5 mg EGCG/ml of wet gel. The coupling solution containing EGCG and Sepharose was mixed end-over end at 4° C. overnight. Remaining active groups were blocked for 2 h at room temperature in Tris-HCl (0.1M, pH 8). EGCG-conjugated Sepharose was washed with three cycles of alternating pH wash buffers (Buffer 1: 0.1M acetate, 0.5M NaCl, pH4.0; Buffer 2: 0.1M Tris-HCl, 0.5M NaCl, pH 8.0). EGCG-conjugated beads were then equilibrated in binding buffer (0.05M Tris-HCl, 0.15M sodium chloride, pH 7.5). The control unconjugated CNBr-activated Sepharose beads were prepared as above in the absence of EGCG.
# For affinity chromatography using histidine-purified XAP2 and purified human hsp90 (Stressgen), 30 μl of unconjugated or EGCG-conjugated Sepharose were incubated for 1 h at room temperature with either 1:4 diluted ^35S-XAP2 in RRL, 30 μl of histidine purified ^35S-XAP2, 0.6 μg of purified hsp90, or 20 μl of histidine purified ^35S-XAP2 in the presence of 0.6 μg of purified hsp90. […]
# AhR = assay: Immunocytochemistry of AhR subcellular localization in Hepa cells; type: cell-based, mouse; details: 1 h
# Method: Hepa cells were plated onto four-well chamber slides (Becton Dickinson, Bedford, Mass.) at a density of 2.0×10^4 and incubated overnight. Cells were treated with either vehicle (DMSO), TCDD (150 pM), EGCG alone (200 μM), or EGCG in the presence of TCDD (150 pM) for 1 h. Cells were fixed with 3.7% formalin at room temperature for 10 minutes, followed by a four minute incubation in anhydrous methanol at 4° C. All antibodies were filtered through a 0.45 micron filter before staining Cells were blocked for one hour in phosphate buffered saline containing 4% BSA, incubated with anti-AhR at a 1:2000 dilution for two hours at room temperature, followed by a one hour incubation with 1:1000 anti-rabbit Alexa-Fluor conjugated secondary antibody (Molecular Probes, Eugene Oreg.). Nuclei were stained with DAPI (0.5 μg/ml) (Molecular Probes) for three minutes at room temperature. Slides were mounted with 50% glycerol and coverslipped. AhR staining and nuclear staining were visualized using a Nikon Eclipse TS110 fluorescent microscope (40× magnification). Fluorescent images were captured using SPOT advanced software.
smiles,measurement,setting,value
"O=C(O[C@@H]1Cc2c(O)cc(O)cc2O[C@@H]1c1cc(O)c(O)c(O)c1)c1cc(O)c(O)c(O)c1 [EGCG, epigallocatechin gallate]",binding of purified hsp90 to EGCG-Sepharose,purified human hsp90,eluted specifically from EGCG-Sepharose
same,effect on TCDD induced nuclear localization of the AhR,AhR; 200 μM EGCG with 150 pM TCDD,did not attenuate this TCDD induced nuclear localization
same,"subcellular localization of the AhR, treatment alone",AhR; EGCG 200 μM or TCDD 150 pM,remarkable redistribution of the AhR from the cytosol to the nucleus
